Common to all, as to type: functional
Conditions in all cases: read-out: ED50 (the source's name)

The test system of one assay is A549. Briefly: Cytotoxicity against human A549 cells.
A further assay deals with SK-OV-3. Briefly: Cytotoxicity against human SKOV3 cells.
A further assay deals with SK-MEL-2. Briefly: Cytotoxicity against human SK-MEL-2 cells.
In another assay the test system is HCT-15. Briefly: Cytotoxicity against human HCT15 cells.
The next assay relates to XF498. Briefly: Cytotoxicity against human XF498 cells.

Values after ≈ are worked out from the molar mass of the structure shown.

Regarding `CC[C@@H](/C=C/[C@@H](C)[C@H]1CC[C@H]2C3=C[C@@H](OC)[C@@]4(O)C[C@@H](O)CC[C@]4(C)[C@H]3CC[C@]12C)C(C)C`, the EC50 with A549 was determined as 4.4 µg/mL (≈ 9.59 µM); with SK-OV-3, 7 µg/mL (≈ 15.3 µM); with SK-MEL-2, 5.2 µg/mL (≈ 11.3 µM); with HCT-15, 4.9 µg/mL (≈ 10.7 µM); with XF498, 3.8 µg/mL (≈ 8.28 µM).

For the molecule `CC(C)[C@H](C)/C=C/[C@@H](C)[C@H]1CC[C@H]2C3=C[C@@H](O)[C@@]4(O)C[C@@H](O)CC[C@]4(C)[C@H]3CC[C@]12C`, the EC50 in the assay with A549, in the assay with SK-OV-3, in the assay on SK-MEL-2, with HCT-15 and in the assay with XF498 was greater than 5 µg/mL in each case.

`CO[C@@H]1C=C2[C@@H]3CC[C@H]([C@H](C)/C=C/CC(C)C)[C@@]3(C)CC[C@@H]2[C@@]2(C)CC[C@H](O)C[C@]12O`: the EC50 in the assay on A549 was determined as 4.8 µg/mL (≈ 11.1 µM); in the assay with SK-OV-3, 7.1 µg/mL (≈ 16.5 µM); in the assay with SK-MEL-2, 3.4 µg/mL (≈ 7.89 µM); with HCT-15 it was 4.2 µg/mL (≈ 9.75 µM); in the assay with XF498, 4 µg/mL (≈ 9.29 µM).

Consider `CC[C@@H](/C=C/[C@@H](C)[C@H]1CC[C@H]2C3=C[C@@H](O)[C@@]4(O)C[C@@H](O)CC[C@]4(C)[C@@]3(O)CC[C@]12C)C(C)C`, for which the EC50 in the assay on A549, in the assay with SK-OV-3, with SK-MEL-2, in the assay on HCT-15 and in the assay on XF498 was greater than 5 µg/mL each time.

Regarding `CC(C)C/C=C/[C@@H](C)[C@H]1CC[C@H]2C3=C[C@@H](O)[C@@]4(O)C[C@@H](O)CC[C@]4(C)[C@H]3CC[C@]12C`, the EC50 in the assay with A549, in the assay on SK-OV-3, in the assay with SK-MEL-2, with HCT-15 and with XF498 was greater than 5 µg/mL in each case.

`CC(C)C(C)/C=C/[C@@H](C)[C@H]1CC[C@@H]2[C@]1(C)CC[C@@]13O[C@@]21[C@H](O)[C@@H]1O[C@@]12C[C@@H](O)CC[C@]32C` (stereo not given in full): the EC50 was 7.1 µg/mL (≈ 16 µM) with A549; 6.3 µg/mL (≈ 14.2 µM) in the assay with SK-OV-3; 2.7 µg/mL (≈ 6.07 µM) with SK-MEL-2; 4.8 µg/mL (≈ 10.8 µM) in the assay on HCT-15; 3.4 µg/mL (≈ 7.65 µM) in the assay on XF498.

As to `CC(C)C/C=C/[C@@H](C)[C@H]1CC[C@H]2C3=C[C@@H](O)[C@@]4(O)C[C@@H](O)CC[C@]4(C)[C@@]3(O)CC[C@]12C`, the EC50 in the assay with A549, with SK-OV-3, in the assay with SK-MEL-2, in the assay on HCT-15 and in the assay on XF498 was greater than 5 µg/mL throughout.

With `CC[C@@H](/C=C/[C@@H](C)[C@H]1CC[C@H]2C3=C[C@@H](O)[C@@]4(O)C[C@@H](O)CC[C@]4(C)[C@H]3CC[C@]12C)C(C)C`, the EC50 in the assay with A549, in the assay on SK-OV-3, in the assay with SK-MEL-2, in the assay with HCT-15 and with XF498 was greater than 5 µg/mL throughout.

Consider `CC[C@@H](/C=C/[C@@H](C)[C@H]1CC[C@@H]2[C@]1(C)CC[C@@]13O[C@@]21[C@H](O)[C@@H]1O[C@@]12C[C@@H](O)CC[C@]32C)C(C)C` (relative stereo) [HOMAXISTEROL B2], for which the EC50 was determined as 1.4 µg/mL (≈ 3.05 µM) in the assay on A549; 1.3 µg/mL (≈ 2.83 µM) with SK-OV-3; 1.1 µg/mL (≈ 2.4 µM) with SK-MEL-2; 1.1 µg/mL (≈ 2.4 µM) with HCT-15; 1 µg/mL (≈ 2.18 µM) with XF498.

Take `COc1cccc2c1C(=O)c1c(O)c3c(c(O)c1C2=O)C[C@@](O)(C(=O)CO)C[C@@H]3O[C@H]1C[C@H](N)[C@H](O)[C@H](C)O1` (stereo in doubt) [DOXORUBICIN]: the EC50 in the assay on A549 amounted to 0.01 µg/mL (≈ 0.0184 µM); in the assay on SK-OV-3, 0.03 µg/mL (≈ 0.0552 µM); in the assay on SK-MEL-2 it was 0.01 µg/mL (≈ 0.0184 µM); in the assay with HCT-15, 0.05 µg/mL (≈ 0.092 µM); in the assay with XF498, 0.01 µg/mL (≈ 0.0184 µM).

In the case of `CC(C)[C@@H](C)/C=C/[C@@H](C)[C@H]1CC[C@H]2C3=C[C@@H](O)[C@@]4(O)C[C@@H](O)CC[C@]4(C)[C@H]3CC[C@]12C` [CEREVISTEROL], the EC50 with A549 was determined as 3.9 µg/mL (≈ 9.06 µM); in the assay with SK-OV-3 it was 6 µg/mL (≈ 13.9 µM); in the assay with SK-MEL-2, 2.8 µg/mL (≈ 6.5 µM); with HCT-15, 3 µg/mL (≈ 6.97 µM); in the assay on XF498, 3.3 µg/mL (≈ 7.66 µM).

For `CC(C)C/C=C/[C@@H](C)[C@H]1CC[C@@H]2[C@]1(C)CC[C@@]13O[C@@]21[C@H](O)[C@@H]1O[C@@]12C[C@@H](O)CC[C@]32C` [HOMAXISTEROL B1], the EC50 with A549 turned out to be 3.9 µg/mL (≈ 9.06 µM); with SK-OV-3, 3.5 µg/mL (≈ 8.13 µM); in the assay with SK-MEL-2 it was 3.1 µg/mL (≈ 7.2 µM); in the assay on HCT-15, 3.2 µg/mL (≈ 7.43 µM); in the assay with XF498 it was 3.4 µg/mL (≈ 7.9 µM).

For `CC(C)C/C=C/[C@@H](C)[C@H]1CC[C@H]2C3=CC(=O)[C@@]4(O)C[C@@H](O)CC[C@]4(C)[C@@]3(O)CC[C@]12C` [HOMAXISTEROL C1], the EC50 in the assay on A549 worked out at 5 µg/mL (≈ 11.6 µM); with SK-OV-3, 7 µg/mL (≈ 16.3 µM); with SK-MEL-2, 3.9 µg/mL (≈ 9.06 µM); in the assay with HCT-15, 3.7 µg/mL (≈ 8.59 µM); in the assay with XF498 it was 3.7 µg/mL (≈ 8.59 µM).

As for `CC(C)C/C=C/[C@@H](C)[C@H]1CC[C@H]2C3=C[C@H](O)[C@@]4(O)C[C@@H](O)CC[C@]4(C)[C@H]3CC[C@]12C` [HOMAXISTEROL D1], the EC50 in the assay on A549 came out at 3.5 µg/mL (≈ 8.4 µM); with SK-OV-3 it was 3.9 µg/mL (≈ 9.36 µM); in the assay on SK-MEL-2, 3.1 µg/mL (≈ 7.44 µM); in the assay on HCT-15, 3.1 µg/mL (≈ 7.44 µM); in the assay with XF498, 3.1 µg/mL (≈ 7.44 µM).

(Values after ChEMBL document CHEMBL1157233, “5,6:8,9-diepoxy and other cytotoxic sterols from the marine sponge Homaxinella sp” (2006).)
